{"source": "patent US20230123104A1", "about": "“CRYSTAL OF TRICYCLIC COMPOUND ACTING ON CRBN PROTEIN AND PREPARATION METHOD THEREFOR” (CHIA TAI TIANQING PHARMACEUTICAL GROUP CO., LTD., priority 2020, published 2023)", "format_in_all_cases": "physicochemical", "key": {"[1]": {"assay": "Stability test of crystalline form A in different solvents (XRPD)", "conditions": "methanol, ethanol, acetone, acetonitrile, tetrahydrofuran, methyl tert-butyl ether, ethyl acetate, water, acetonitrile or acetone with water", "procedure": "50-mg portions of the crystalline form A of the compound of formula (I) were weighed into different 2.0 mL glass vials, and appropriate amounts of single or mixed solvents in the table below were added. After the addition of magnetic stir bars, the samples were stirred on a magnetic stirrer (25° C./50° C., 700 rpm) in the dark. The 25° C. samples were stirred for 1 week and centrifuged, and the resulting solid samples were dried in a vacuum oven at 40° C. overnight. The 50° C. samples were stirred for 2 days and centrifuged in a centrifuge tube with a filter membrane, and the solvent in the lower layer was discarded. The samples were let stand in a fume hood for 1 h so that they were air-dried. The resulting dried samples were subjected to XRPD analysis to determine their crystalline forms."}, "[2]": {"assay": "Hygroscopicity study by dynamic vapor sorption (DVS)", "procedure": "In the present application, dynamic vapor sorption (DVS) analysis is performed under the following conditions: instrument: SMS DVS Advantage-1; equilibration: dm/dt=0.01%/min (shortest: 60 min, longest: 180 min); drying: drying at 0% RH for 120 min; RH (%) test gradient: 10%; range of RH (%) test gradient: 0%-90%-0%.\nThe evaluation of hygroscopicity was classified as follows:\nDynamic Vapor Sorption Apparatus SMS DVS Advantage-1\n10-15 mg of the crystalline form A of the compound of formula (I) was placed in a DVS sample tray and tested."}, "[3]": {"assay": "Solid stability test at high temperature, at high humidity, and in intense light", "procedure": "According to the “Guidelines for the Stability Test of APIs and Preparations” (General Principles 9001 of the Four Parts of the Chinese Pharmacopoeia, 2020 Edition), the stability of the crystalline form A of the compound of formula (I) was investigated at high temperature (60° C., open), at high humidity (room temperature/relative humidity at 92.5%, open), and in intense light (5000±500 Lux, 90 μw/cm^2, open).\n1.5 g of the crystalline form A of the compound of formula (I) was weighed into an open measuring flask and spread out to form a thin layer. The sample for high temperature test was placed in an electrothermal drying oven and investigated, and the sample for high humidity test was placed in an integrated drug stability test chamber and investigated. Samples were taken on days 5, 10 and 30 for analysis, and the results were compared with the preliminary results of day 0. The sample for intense light test was placed in an open flask. Samples were taken on days 5 and 10 for analysis, and the results were compared with the preliminary results of day 0."}, "[4]": {"assay": "Solid stability test under long-term conditions (25° C./relative humidity at 60%, sealed)", "procedure": "According to the “Guidelines for the Stability Test of APIs and Preparations” (General Principles 9001 of the Four Parts of the Chinese Pharmacopoeia, 2020 Edition), the stability of the crystalline form A of the compound of formula (I) was investigated under long-terns conditions (25° C./relative humidity at 60%, sealed).\n1.5 g of the crystalline form A of the compound of formula (I) was weighed into a double-layer low-density polyethylene bag. Each layer of the low-density polyethylene bag was sealed with a binding tie, and the bag was put into an aluminum foil hag. Samples were taken in months 3 and 6 for analysis, and the results were compared with the preliminary results of day 0. This experiment was repeated twice, each with a different batch of the crystalline form A of the compound of formula (I)."}, "[5]": {"assay": "Solid stability test under accelerated conditions (40° C./relative humidity at 75%, sealed)", "procedure": "According to the “Guidelines for the Stability Test of APIs and Preparations” (General Principles 9001 of the Four Parts of the Chinese Pharmacopoeia, 2020 Edition), the stability of the crystalline form A of the compound of formula (I) was investigated under accelerated conditions at high temperature and high humidity (40° C./relative humidity at 75%, sealed).\n1.5 g of the crystalline form A of the compound of formula (I) was weighed into a double-layer low-density polyethylene bag. Each layer a the low-density polyethylene bag was sealed with a binding tie, and the bag was put into an aluminum foil bag. Samples were taken in months 1, 2, 3 and 6 for analysis, and the results were compared with the preliminary results of day 0. This experiment was repeated twice, each with a different batch of the crystalline form A of the compound of formula (I)."}, "[6]": {"conditions": "High humidity (room temperature/relative humidity 92.5%, open), Day 5"}, "[7]": {"conditions": "High humidity (room temperature/relative humidity 92.5%, open), Day 10"}, "[8]": {"conditions": "High humidity (room temperature/relative humidity 92.5%, open), Day 30"}, "[9]": {"conditions": "High temperature (60° C., open), Day 5"}, "[10]": {"conditions": "High temperature (60° C., open), Day 10"}, "[11]": {"conditions": "High temperature (60° C., open), Day 30"}, "[12]": {"conditions": "Intense light (5000 ± 500 Lux, 90 μw/cm^2, open), Day 5"}, "[13]": {"conditions": "Intense light (5000 ± 500 Lux, 90 μw/cm^2, open), Day 10"}, "[14]": {"conditions": "Batch 1, 25° C./relative humidity at 60%, sealed, Month 3"}, "[15]": {"conditions": "Batch 1, 25° C./relative humidity at 60%, sealed, Month 6"}, "[16]": {"conditions": "Batch 2, 25° C./relative humidity at 60%, sealed, Month 3"}, "[17]": {"conditions": "Batch 2, 25° C./relative humidity at 60%, sealed, Month 6"}, "[18]": {"conditions": "Batch 1, 40° C./relative humidity at 75%, sealed, Month 1"}, "[19]": {"conditions": "Batch 1, 40° C./relative humidity at 75%, sealed, Month 2"}, "[20]": {"conditions": "Batch 1, 40° C./relative humidity at 75%, sealed, Month 3"}, "[21]": {"conditions": "Batch 1, 40° C./relative humidity at 75%, sealed, Month 6"}, "[22]": {"conditions": "Batch 2, 40° C./relative humidity at 75%, sealed, Month 1"}, "[23]": {"conditions": "Batch 2, 40° C./relative humidity at 75%, sealed, Month 2"}, "[24]": {"conditions": "Batch 2, 40° C./relative humidity at 75%, sealed, Month 3"}, "[25]": {"conditions": "Batch 2, 40° C./relative humidity at 75%, sealed, Month 6"}}, "data": [{"smiles": "O=C1CCC(c2noc3ccc4[nH]ccc4c23)C(=O)N1", "note": "(stereo not drawn)", "values": [{"measurement": "stability in solvents (conclusion)", "setting": "[1]", "value": "good stability"}, {"measurement": "hygroscopicity classification", "setting": "[2]; 25° C., 80% RH, DVS", "value": "no or almost no hygroscopicity"}, {"measurement": "crystalline form after DVS test", "setting": "[2]; after DVS", "value": "remained unchanged"}, {"measurement": "Content", "setting": "[3]; Day 0", "value": 98.9, "unit": "%"}, {"measurement": "Total impurities", "setting": "[3]; Day 0", "value": "<0.05", "unit": "%"}, {"measurement": "Content", "setting": "[3]; [6]", "value": 100.7, "unit": "%"}, {"measurement": "Total impurities", "setting": "[3]; [6]", "value": "<0.05", "unit": "%"}, {"measurement": "Content", "setting": "[3]; [7]", "value": 100.2, "unit": "%"}, {"measurement": "Total impurities", "setting": "[3]; [7]", "value": "<0.05", "unit": "%"}, {"measurement": "Content", "setting": "[3]; [8]", "value": 100.4, "unit": "%"}, {"measurement": "Total impurities", "setting": "[3]; [8]", "value": "<0.05", "unit": "%"}, {"measurement": "Content", "setting": "[3]; [9]", "value": 99.9, "unit": "%"}, {"measurement": "Total impurities", "setting": "[3]; [9]", "value": "<0.05", "unit": "%"}, {"measurement": "Content", "setting": "[3]; [10]", "value": 100.2, "unit": "%"}, {"measurement": "Total impurities", "setting": "[3]; [10]", "value": "<0.05", "unit": "%"}, {"measurement": "Content", "setting": "[3]; [11]", "value": 100.2, "unit": "%"}, {"measurement": "Total impurities", "setting": "[3]; [11]", "value": "<0.05", "unit": "%"}, {"measurement": "Content", "setting": "[3]; [12]", "value": 100.7, "unit": "%"}, {"measurement": "Total impurities", "setting": "[3]; [12]", "value": "<0.05", "unit": "%"}, {"measurement": "Content", "setting": "[3]; [13]", "value": 100.0, "unit": "%"}, {"measurement": "Total impurities", "setting": "[3]; [13]", "value": "<0.05", "unit": "%"}, {"measurement": "solid stability (conclusion)", "setting": "[3]; at high temperature, at high humidity, and in intense light", "value": "good stability"}, {"measurement": "Content", "setting": "[4]; [14]", "value": 99.8, "unit": "%"}, {"measurement": "Total impurities", "setting": "[4]; [14]", "value": "<0.05", "unit": "%"}, {"measurement": "Content", "setting": "[4]; [15]", "value": 99.2, "unit": "%"}, {"measurement": "Total impurities", "setting": "[4]; [15]", "value": "<0.05", "unit": "%"}, {"measurement": "Content", "setting": "[4]; Batch 1, Day 0", "value": 98.9, "unit": "%"}, {"measurement": "Total impurities", "setting": "[4]; Batch 1, Day 0", "value": "<0.05", "unit": "%"}, {"measurement": "Appearance", "setting": "[4]; [16]", "value": "White powder"}, {"measurement": "Content", "setting": "[4]; [16]", "value": 100.4, "unit": "%"}, {"measurement": "Total impurities", "setting": "[4]; [16]", "value": "<0.05", "unit": "%"}, {"measurement": "Appearance", "setting": "[4]; [17]", "value": "White powder"}, {"measurement": "Content", "setting": "[4]; [17]", "value": 100.4, "unit": "%"}, {"measurement": "Total impurities", "setting": "[4]; [17]", "value": "<0.05", "unit": "%"}, {"measurement": "Appearance", "setting": "[4]; Batch 2, Day 0", "value": "White powder"}, {"measurement": "Content", "setting": "[4]; Batch 2, Day 0", "value": 100.2, "unit": "%"}, {"measurement": "Total impurities", "setting": "[4]; Batch 2, Day 0", "value": "<0.05", "unit": "%"}, {"measurement": "solid stability (conclusion)", "setting": "[4]; long-term conditions at 25° C. with relative humidity at 60%", "value": "good stability"}, {"measurement": "Content", "setting": "[5]; [18]", "value": 100.1, "unit": "%"}, {"measurement": "Total impurities", "setting": "[5]; [18]", "value": 0.05, "unit": "%"}, {"measurement": "Content", "setting": "[5]; [19]", "value": 100.4, "unit": "%"}, {"measurement": "Total impurities", "setting": "[5]; [19]", "value": "<0.05", "unit": "%"}, {"measurement": "Content", "setting": "[5]; [20]", "value": 100.4, "unit": "%"}, {"measurement": "Total impurities", "setting": "[5]; [20]", "value": "<0.05", "unit": "%"}, {"measurement": "Content", "setting": "[5]; [21]", "value": 98.1, "unit": "%"}, {"measurement": "Total impurities", "setting": "[5]; [21]", "value": "<0.05", "unit": "%"}, {"measurement": "Content", "setting": "[5]; Batch 1, Day 0", "value": 98.9, "unit": "%"}, {"measurement": "Total impurities", "setting": "[5]; Batch 1, Day 0", "value": "<0.05", "unit": "%"}, {"measurement": "Content", "setting": "[5]; [22]", "value": 100.0, "unit": "%"}, {"measurement": "Total impurities", "setting": "[5]; [22]", "value": 0.05, "unit": "%"}, {"measurement": "Content", "setting": "[5]; [23]", "value": 100.2, "unit": "%"}, {"measurement": "Total impurities", "setting": "[5]; [23]", "value": "<0.05", "unit": "%"}, {"measurement": "Content", "setting": "[5]; [24]", "value": 100.2, "unit": "%"}, {"measurement": "Total impurities", "setting": "[5]; [24]", "value": "<0.05", "unit": "%"}, {"measurement": "Content", "setting": "[5]; [25]", "value": 99.2, "unit": "%"}, {"measurement": "Total impurities", "setting": "[5]; [25]", "value": "<0.05", "unit": "%"}, {"measurement": "Appearance", "setting": "[5]; Batch 2, Day 0", "value": "White powder"}, {"measurement": "Content", "setting": "[5]; Batch 2, Day 0", "value": 100.2, "unit": "%"}, {"measurement": "Total impurities", "setting": "[5]; Batch 2, Day 0", "value": "<0.05", "unit": "%"}, {"measurement": "solid stability (conclusion)", "setting": "[5]; accelerated conditions at 40° C. with relative humidity at 75%", "value": "good stability"}]}]}
